{"source": "patent US20220257597A1", "about": "“Methods of Administering Elagolix” (AbbVie Inc., priority 2021, published 2022)", "key": {"[1]": {"assay": "Drug-drug interaction study: effect of multiple doses of elagolix sodium on pharmacokinetics of bupropion (CYP2B6 substrate) and OH-bupropion", "protocol": "Subjects: Twenty four (24) adult premenopausal women in generally good health participated in this study.\nElagolix 300 mg BID (as 300 mg immediate release tablets) was administered in the morning and evening on days 1 through 14 in period 2. […] No food was consumed for 2 hours prior to the evening doses of elagolix continuing through 2 hours after. The doses of elagolix were separated by approximately 12 hours.\nIndividual PK parameters (peak concentration [Cmax] and area under the concentration-time curve [AUC]) were estimated using noncompartmental methods.\nCentral value ratios (90% confidence intervals) for Cmax, AUC, and metabolite to parent ratios (MPRs) (day 11, period 2 vs. day 1, period 1) were calculated to assess the DDIs. Safety was evaluated through assessment of adverse events, vital signs, electrocardiogram, and clinical laboratory tests.\nAdverse events (AEs) were monitored throughout the DDI study. Additional safety evaluations included monitoring of physical examinations, vital signs, electrocardiogram variables, and clinical laboratory values were assessed"}, "[2]": {"assay": "Phase 1 open-label study: coadministration of combined oral contraceptive (EE+LNG) with elagolix sodium, pharmacokinetics, safety and tolerability", "type": "in vivo, human", "details": "healthy premenopausal female subjects", "protocol": "Objective: To evaluate the effect of elagolix on the pharmacokinetics, safety, and tolerability of a single dose of a combined oral contraceptive (COC) containing EE and LNG in healthy premenopausal female subjects. […] [table] […] Diagnosis and Main Criteria for Inclusion: Subjects were premenopausal females, and age was between 18 and 49 years, inclusive. Test Product, Dose/Strength/Concentration, and Mode of Administration: […] EE/LNG 0.02 mg/0.1 mg tablet; All study drugs were administered orally. Duration of Treatment: […] EE/LNG: 0.02 mg/0.1 mg on two separate occasions. Criteria for Evaluation: Pharmacokinetic: Cmax, Tmax, t1/2 and AUC. Safety: Vital signs, physical examinations, laboratory tests, and adverse events. […] The tabulation of the number of subjects with treatment-emergent adverse events also was provided with further breakdowns by severity rating and relationship to study drug."}, "CYP3A4": {"tested_on": "CYP3A4", "assay": "In vitro studies: CYP3A induction", "type": "in vitro ADME"}, "CYP2C19": {"target": "CYP2C19 (Homo sapiens, UniProt P33261)", "sequence (P33261 whole entry)": "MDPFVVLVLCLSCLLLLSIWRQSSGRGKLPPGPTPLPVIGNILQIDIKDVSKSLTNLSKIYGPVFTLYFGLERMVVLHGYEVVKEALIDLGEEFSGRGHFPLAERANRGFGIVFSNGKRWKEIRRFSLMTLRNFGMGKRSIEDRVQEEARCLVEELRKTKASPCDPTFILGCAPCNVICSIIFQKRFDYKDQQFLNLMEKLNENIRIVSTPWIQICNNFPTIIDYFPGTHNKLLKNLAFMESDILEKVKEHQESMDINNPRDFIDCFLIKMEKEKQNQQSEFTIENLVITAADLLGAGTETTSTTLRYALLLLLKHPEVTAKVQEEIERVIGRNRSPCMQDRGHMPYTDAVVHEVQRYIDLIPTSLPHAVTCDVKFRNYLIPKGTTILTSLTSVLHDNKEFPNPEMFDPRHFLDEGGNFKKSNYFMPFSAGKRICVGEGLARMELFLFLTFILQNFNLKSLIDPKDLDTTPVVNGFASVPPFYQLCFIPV", "assay": "In vitro studies: CYP2C19 inhibition", "type": "in vitro ADME"}, "[3]": {"target": "efflux transporter P-glycoprotein (P-gp) (Homo sapiens, UniProt P08183)", "sequence (P08183 whole entry)": "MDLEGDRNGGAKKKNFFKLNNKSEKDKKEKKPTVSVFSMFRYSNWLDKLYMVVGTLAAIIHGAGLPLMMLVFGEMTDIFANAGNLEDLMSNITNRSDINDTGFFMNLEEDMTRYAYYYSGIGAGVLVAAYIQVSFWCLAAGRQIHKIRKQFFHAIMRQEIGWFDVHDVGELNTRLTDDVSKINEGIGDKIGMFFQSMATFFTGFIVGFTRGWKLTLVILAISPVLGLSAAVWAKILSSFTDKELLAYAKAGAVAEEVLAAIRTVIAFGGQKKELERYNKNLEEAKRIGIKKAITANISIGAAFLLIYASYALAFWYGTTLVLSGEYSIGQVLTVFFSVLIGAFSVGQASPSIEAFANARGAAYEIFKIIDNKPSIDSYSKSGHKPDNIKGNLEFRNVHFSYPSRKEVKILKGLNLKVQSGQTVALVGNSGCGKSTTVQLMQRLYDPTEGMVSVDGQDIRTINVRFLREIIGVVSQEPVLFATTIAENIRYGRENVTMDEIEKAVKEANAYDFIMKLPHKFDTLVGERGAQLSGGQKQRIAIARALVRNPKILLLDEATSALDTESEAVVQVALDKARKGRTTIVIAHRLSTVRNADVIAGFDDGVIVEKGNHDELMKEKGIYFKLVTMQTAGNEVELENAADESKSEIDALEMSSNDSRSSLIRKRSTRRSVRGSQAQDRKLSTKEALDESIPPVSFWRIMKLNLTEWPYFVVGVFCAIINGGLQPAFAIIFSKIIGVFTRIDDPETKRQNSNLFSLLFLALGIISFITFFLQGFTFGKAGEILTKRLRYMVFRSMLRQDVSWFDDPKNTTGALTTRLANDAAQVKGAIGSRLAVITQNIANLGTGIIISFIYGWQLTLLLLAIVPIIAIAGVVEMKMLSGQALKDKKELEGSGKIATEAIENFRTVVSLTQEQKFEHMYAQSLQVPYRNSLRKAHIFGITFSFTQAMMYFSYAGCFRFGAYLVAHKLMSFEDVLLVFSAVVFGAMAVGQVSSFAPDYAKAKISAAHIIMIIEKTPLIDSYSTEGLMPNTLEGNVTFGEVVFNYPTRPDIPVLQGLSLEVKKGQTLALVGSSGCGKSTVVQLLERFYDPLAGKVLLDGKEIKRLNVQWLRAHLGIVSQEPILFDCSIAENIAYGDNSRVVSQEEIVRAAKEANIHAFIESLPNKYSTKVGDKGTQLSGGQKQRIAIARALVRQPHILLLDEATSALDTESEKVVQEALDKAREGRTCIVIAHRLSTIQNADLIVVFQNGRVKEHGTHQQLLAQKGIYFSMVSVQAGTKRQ", "assay": "P-glycoprotein inhibition", "type": "in vitro ADME"}, "CYP3A": {"tested_on": "CYP3A", "assay": "Substrate of / metabolism by CYP3A", "type": "in vitro ADME"}, "P-gp": {"target": "P-gp (Homo sapiens, UniProt P08183)", "sequence (P08183 whole entry)": "as above", "assay": "Substrate of P-gp", "type": "in vitro ADME"}, "OATP1B1": {"target": "T1, OATP1B1 (Homo sapiens, UniProt Q9Y6L6)", "T1 sequence (Q9Y6L6 1-691)": "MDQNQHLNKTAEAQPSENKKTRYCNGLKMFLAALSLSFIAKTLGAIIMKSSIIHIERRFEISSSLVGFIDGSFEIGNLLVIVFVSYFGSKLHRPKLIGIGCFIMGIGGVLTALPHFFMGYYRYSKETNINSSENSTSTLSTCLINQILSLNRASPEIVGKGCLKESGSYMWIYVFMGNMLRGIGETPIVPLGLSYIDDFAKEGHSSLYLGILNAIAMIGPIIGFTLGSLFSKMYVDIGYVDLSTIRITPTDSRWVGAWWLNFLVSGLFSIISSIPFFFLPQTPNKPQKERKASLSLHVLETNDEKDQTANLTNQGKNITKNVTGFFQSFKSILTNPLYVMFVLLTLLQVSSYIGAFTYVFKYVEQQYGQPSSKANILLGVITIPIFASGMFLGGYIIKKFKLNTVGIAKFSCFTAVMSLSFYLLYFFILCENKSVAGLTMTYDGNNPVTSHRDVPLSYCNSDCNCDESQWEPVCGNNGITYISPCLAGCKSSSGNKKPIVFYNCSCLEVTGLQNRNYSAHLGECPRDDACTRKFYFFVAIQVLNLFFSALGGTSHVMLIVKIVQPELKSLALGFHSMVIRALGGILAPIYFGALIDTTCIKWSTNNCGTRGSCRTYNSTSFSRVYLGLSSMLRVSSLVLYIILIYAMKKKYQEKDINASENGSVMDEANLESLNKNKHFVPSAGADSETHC", "assay": "Substrate of OATP1B1", "type": "in vitro ADME"}, "[4]": {"assay": "Embryofetal development study in the rat", "type": "in vivo", "description": "Embryofetal development studies were conducted in the rat and rabbit. Elagolix was administered by oral gavage to pregnant rats (25 animals/dose) at doses of 0, 300, 600 and 1200 mg/kg/day and to rabbits (20 animals/dose) at doses of 0, 100, 150, and 200 mg/kg/day, during the period of organogenesis (gestation day 6-17 in the rat and gestation day 7-20 in the rabbit)."}, "[5]": {"assay": "Elagolix apparent terminal phase elimination half-life", "details": "human, in vivo; read-out: apparent terminal phase elimination half-life (t1/2)"}}, "note": "“Also recorded” adds a separate entry of the source.", "data": [{"smiles": "COc1cccc(-c2c(C)n(Cc3c(F)cccc3C(F)(F)F)c(=O)n(C[C@H](NCCCC(=O)O)c3ccccc3)c2=O)c1F", "note": "[elagolix, 4-((R)-2-[5-(2-fluoro-3-methoxy-phenyl)-3-(2-fluoro-6-trifluoromethyl-benzyl)-4-methyl-2,6-dioxo-3,6-dihydro-2H-pyrimidin-1-yl]-1-phenyl-ethylamino)-butyric acid]", "values": [{"measurement": "CYP2B6 induction in the healthy volunteer study", "setting": "[1]; elagolix 300 mg BID for 10 days", "value": "did not induce CYP2B6"}, {"measurement": "tolerability of co-administration of elagolix and bupropion", "setting": "[1]; healthy premenopausal female subjects", "value": "generally well tolerated"}, {"measurement": "tolerability of co-administration of elagolix and EE/LNG", "setting": "[2]", "value": "generally well tolerated"}, {"measurement": "inducer of CYP3A4 / cytochrome P450 (CYP) 3A", "setting": "CYP3A4", "value": "weak to moderate inducer"}, {"measurement": "inhibitor of CYP2C19", "setting": "CYP2C19", "value": "weak inhibitor"}, {"measurement": "inhibitor of efflux transporter P-glycoprotein (P-gp)", "setting": "[3]", "value": "inhibitor"}, {"measurement": "substrate of CYP3A", "setting": "CYP3A", "value": "substrate"}, {"measurement": "substrate of P-gp", "setting": "P-gp", "value": "substrate"}, {"measurement": "substrate of OATP1B1", "setting": "OATP1B1", "value": "substrate"}, {"measurement": "dose with increased post implantation losses, as multiple of the MRHD based on AUC", "setting": "[4]; pregnant rats, mid dose group", "value": 12, "unit": "times the MRHD"}, {"measurement": "maternal deaths", "setting": "[4]; pregnant rats, oral gavage 300, 600 and 1200 mg/kg/day", "value": "six deaths"}, {"measurement": "fetal malformations / structural abnormalities", "setting": "[4]; rat, any dose level tested", "value": "no structural abnormalities; also recorded: No fetal malformations"}, {"measurement": "half-life", "setting": "[5]", "value": "4 to 6", "unit": "h"}]}]}
